Results taken from patent publication EP1142587A1 (priority 1998, dated 2000).

Assays:
dopamine D2 receptor = biological target: T1, dopamine D2 receptor (Rattus norvegicus, UniProt P61169); test: biochemical; type: binding
T1 construct: A membrane fraction obtained from rat corpus striatum was prepared as a membrane fraction of a dopamine D2 receptor; from tissue; host or cells: rat corpus striatum membrane fraction

mouse = test: Anti-dopamine action against apomorphine-induced climbing behavior; type: in vivo; conditions: for Wall climbing behavior: apomorphine (2mg/kg, s.c.) + test substance; for ED50: sc, apomorphine 2mg/kg s.c. 10 minutes after test drug, climbing measured from 20 minutes after apomorphine for 1 minute, read-out: ED50 value regarding anti-dopamine action
Source text: The term "a compound having dopamine D2 receptor antagonist activity" is used herein to mean a compound showing a binding affinity in a D2 receptor membrane binding test, and also showing inhibiting effect to apomorphine-induced climbing behavior.
The administration of dopamine receptor agonists, apomorphine induces a continual climbing behavior in mice. A test for competitive action against this effect is generally used as a method for detecting the dopamine receptor antagonist. A mouse was put into a cylindrical wire gauze (10 cm diameter × 14cm height) and allowed to habituate itself with the circumstances for about 1 hour. Apomorphine (2mg/kg, s.c.) was administered to the mouse at 10 minutes after the administration of the test drug, and from 20 minutes after the administration of apomorphine, its climbing behavior (which means the period during which all four legs of the mouse have left from the ground) was measured for 1 minute. Furthermore, a sigmoid curve was determined from dose response by a method of least squares, and ED50 value was calculated.

Mice = conditions: mouse, in vivo, ip
Sprague-Dawley rats = conditions: rat, in vivo
ddY male mice = test: animal or person; type: in vivo; conditions: Mus musculus, ip, 0.5 h, read-out: ED50 value regarding analgetic effect

T1 sequence (P61169 whole entry): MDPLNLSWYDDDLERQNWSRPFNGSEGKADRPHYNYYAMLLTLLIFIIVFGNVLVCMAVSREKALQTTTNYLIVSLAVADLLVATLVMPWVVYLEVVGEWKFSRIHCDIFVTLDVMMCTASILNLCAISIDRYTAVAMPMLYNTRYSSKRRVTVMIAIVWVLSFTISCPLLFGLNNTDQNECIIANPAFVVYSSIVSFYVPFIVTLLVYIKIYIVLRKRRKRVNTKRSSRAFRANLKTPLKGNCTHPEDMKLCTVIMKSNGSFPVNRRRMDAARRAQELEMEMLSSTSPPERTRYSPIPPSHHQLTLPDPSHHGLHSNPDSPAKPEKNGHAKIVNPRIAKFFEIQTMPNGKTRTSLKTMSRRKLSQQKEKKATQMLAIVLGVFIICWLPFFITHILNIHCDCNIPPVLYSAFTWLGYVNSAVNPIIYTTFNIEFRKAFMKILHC

Row | Structure (SMILES) | Ki (dopamine D2 receptor) | Wall climbing behavior (mouse) | ED50 (mouse) | effect on locomotor activity (Mice) | position palatability (psychological dependence / aversive effect) (Sprague-Dawley rats) | ED50 (ddY male mice)
1 | O=C1OC2(CCN(Cc3ccccc3)CC2)c2c1ccc1ccccc21 [Example 11, 1'-benzyl(benzo[g]1,3-dihydroisobenzofuran-1-spiro-4'-piperidine)-3-on] | 177 nM | – | – | – | – | –
2 | O=C1OC2(CCN(Cc3ccc(Cl)nc3)CC2)c2c1ccc1ccccc21 [Example 2, 1'-(6-chloro-3-pyridyl)methyl(benzo[g]1,3-dihydroisobenzofuran-1-spiro-4'-piperidine)-3-on] | 532 nM | – | – | – | – | –
3 | O=C1OC2(CCN(Cc3ccc(Cl)nc3)CC2)c2cc3ccccc3cc21 [Example 3, 1'-(6-chloro-3-pyridyl)methyl(benzo[f]1,3-dihydroisobenzofuran-1-spiro-4'-piperidine)-3-on] | 1590 nM | – | – | – | – | –
4 | Cc1ccc(CN2CCC3(CC2)C(=O)NCN3c2ccccc2)cc1 [Example 23, 1'-(4-methylbenzyl)-spiroimidazolidine-4,4'-piperidine-3-phenyl-5-on] | 52 nM | inhibitory effect | 9.5 mg/kg | no effect on locomotor activity | – | –
5 | O=C1OC2(CCN(Cc3ccccc3)CC2)c2ccccc21 [Reference example 15, 1'-benzyl-spiro[benzodihydrofuran-1(3H),4'-piperidine)-3-on, reference compound] | > 1000 nM | – | – | – | – | –
6 | N=C1OC2(CCN(Cc3ccc(Cl)nc3)CC2)c2c1ccc1ccccc21 [Example 1, 1'-(6-chloro-3-pyridyl)methyl(benzo[g]1,3-dihydroisobenzofuran-1-spiro-4'-piperidine)-3-imine] | 230 nM | – | – | – | – | –
7 | CN1CC[C@]23c4c5ccc(O)c4O[C@H]2[C@@H](O)C=C[C@H]3[C@H]1C5 [Morphine, reference compound] | – | – | – | strong locomotor activity promoting effect | strong rewarding effect | 13.7 mg/kg
8 | O=C1NCN(c2ccccc2)C12CCN(Cc1ccc(Cl)nc1)CC2 [Example 15, 1'-(6-chloro-3-pyridyl)methyl-spiroimidazolidine-4,4'-piperidine-3-phenyl-5-on] | 3.6 nM | inhibitory effect | 1.22 mg/kg | no effect on locomotor activity | – | –
9 | O=C1NCN(c2ccccc2)C12CCN(Cc1cccnc1)CC2 [Example 17, 1'-(3-pyridyl)methyl-spiroimidazolidine-4,4'-piperidine-3-phenyl-5-on] | 457 nM | – | – | no effect on locomotor activity | – | –
10 | O=C1NCN(c2ccccc2)C12CCN(Cc1ccc(Br)cc1)CC2 [Example 18, 1'-(4-bromobenzyl)-spiroimidazolidine-4,4'-piperidine-3-phenyl-5-on] | 5.7 nM | inhibitory effect | 1.05 mg/kg | no effect on locomotor activity | – | –
11 | Cc1ccc(CN2CCC3(CC2)C(=O)NCN3c2ccccc2)cn1 [Example 16, 1'-(6-methyl-3-pyridyl)methyl-spiroimidazolidine-4,4'-piperidine-3-phenyl-5-on] | 17 nM | inhibitory effect | 11.9 mg/kg | no effect on locomotor activity | neither psychological dependence nor aversive effects | –
12 | COc1ccc(CN2CCC3(CC2)C(=O)NCN3c2ccccc2)cc1 [Example 14, 1'-(4-methoxybenzyl)-spiroimidazolidine-4,4'-piperidine-3-phenyl-5-on] | 20 nM | inhibitory effect | 2.22 mg/kg | no effect on locomotor activity | neither psychological dependence nor aversive effects | –
